Measurements as given in US10681909B2, “Herbicidal triazoles” (FMC Corporation, priority 2014, dated 2020).

Assays:
pigweed = assay: Test C preemergence; type: in vivo, Amaranthus retroflexus; settings: for Plant response rating (scale of 0 to 100 where 0 is no effect and 100 is complete control): Pigweed, preemergence; for Pigweed plant response rating (0 to 100): Preemergence, visual rating after 13 to 15 d
Source text: (§1) Seeds of plant species selected from blackgrass (Alopecurus myosuroides), ryegrass, Italian (Italian ryegrass, Lolium multiflorum), wheat (winter wheat, Triticum aestivum), galium (catchweed bedstraw, Galium aparine), corn (Zea mays), crabgrass, large (large crabgrass, Digitaria sanguinalis), foxtail, giant, (giant foxtail, Setaria faberii), johnsongrass (Sorghum halepense), lambsquarters (Chenopodium album), morningglory (Ipomoea coccinea), nutsedge, yellow (yellow nutsedge, Cyperus esculentus), pigweed (Amaranthus retroflexus), ragweed (common ragweed, Ambrosia elatior), soybean (Glycine max), barnyardgrass (Echinochloa crus-galli), oilseed rape (Brassica napus), waterhemp (common waterhemp, Amaranthus rudis), and velvetleaf (Abutilon theophrasti) were planted into a blend of loam soil and sand and treated preemergence with test chemicals formulated in a non-phytotoxic solvent mixture which included a surfactant. At the same time, plants selected from these crop and weed species and also chickweed (common chickweed, Stellaria media), oat, wild (wild oat, Avena fatua), and kochia (Kochia scoparia), were planted in pots containing Sunshine Redi-Earth® planting medium comprising spaghnum peat moss, vermiculite, starter nutrients and dolomitic limestone and treated with postemergence applications of test chemicals formulated in the same manner. Plants ranged in height from 2 to 18 cm (1- to 4-leaf stage) for postemergence treatments. […] A dash (-) response means no test result.

wild mustard = assay: Test D preemergence; type: in vivo, Sinapis arvensis; settings: scale 0 to 100
Source text: (§2) Seeds of plant species selected from bluegrass (annual bluegrass, Poa annua), blackgrass (Alopecurus myosuroides), canarygrass (Phalaris minor), chickweed (common chickweed, Stellaria media), galium (catchweed bedstraw, Galium aparine), bromegrass, down (downy bromegrass, Bromus tectorum), Russian thistle (Salsola kali), field poppy (Papaver rhoeas), field violet (Viola arvensis), foxtail, green (green foxtail, Setaria viridis), deadnettle (henbit deadnettle, Lamium amplexicaule), ryegrass, Ital. (Italian ryegrass, Lolium multiflorum), kochia (Kochia scoparia), lambsquarters (Chenopodium album), oilseed rape (Brassica napus), pigweed (Amaranthus retroflexus), chamomile (scentless chamomile, Matricaria inodora), speedwell (bird's-eye speedwell, Veronica persica), barley, spring (spring barley, Hordeum vulgare), wheat, spring (spring wheat, Triticum aestivum), buckwheat, wild (wild buckwheat, Polygonum convolvulus), wild mustard (Sinapis arvensis), oat, wild (wild oat, Avena fatua), radish, wild (wild radish, Raphanus raphanistrum), […]), barley, winter (winter barley, Hordeum vulgare), and wheat, winter (winter wheat, Triticum aestivum) were planted into a silt loam soil and treated preemergence with test chemicals formulated in a non-phytotoxic solvent mixture which included a surfactant. At the same time, these species were planted in pots containing Sunshine Redi-Earth® planting medium comprising spaghnum peat moss, vermiculite, starter nutrients and dolomitic limestone and treated with postemergence applications of the test chemicals formulated in the same manner. Plants ranged in height from 2 to 18 cm (1- to 4-leaf stage). Treated plants and controls were maintained in a controlled growth environment for 14 to 21 d after which time all species were compared to controls and visually evaluated. […] A dash (-) response means no test result.

velvetleaf = assay: Test A postemergence; type: in vivo, Abutilon theophrasti; settings: Abutilon theophrasti, post-emergence, 240 h, 0 to 100 scale (0 no effect, 100 complete control), approx. 10 d, read-out: Plant response rating, Velvetleaf; for pest or weed control at 125 g/ha: 125 g ai/ha; for pest or weed control at 500 g/ha: 500 g ai/ha
In short: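 Test chemicals, formulated in a surfactant-containing non-phytotoxic solvent mixture, are applied either as a directed soil spray to newly planted seeds or as a postemergence application to plants at the one- to two-leaf stage (2–10 cm). All plants grow in a loam soil and sand blend.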

barley, spring = assay: Test D preemergence; type: in vivo, Hordeum vulgare; settings: scale 0 to 100
Source text: as §2

barley, winter = assay: Test D preemergence; type: in vivo, Hordeum vulgare; settings: scale 0 to 100
Source text: as §2

foxtail, giant = assay: Test C preemergence; type: in vivo, Setaria faberii; settings: for Plant response rating (scale of 0 to 100 where 0 is no effect and 100 is complete control): Foxtail, Giant, preemergence; for Foxtail, Giant plant response rating (0 to 100): Preemergence, visual rating after 13 to 15 d
Source text: as §1

ragweed = assay: Test A postemergence; type: in vivo, Ambrosia elatior; settings: 0 to 100 scale (0 no effect, 100 complete control), approx. 10 d
Source text: Seeds of plant species selected from barnyardgrass (Echinochloa crus-galli), crabgrass, large (large crabgrass, Digitaria sanguinalis), kochia (Kochia scoparia), ragweed (common ragweed, Ambrosia elatior), foxtail, giant (giant foxtail, Setaria faberii), morningglory (Ipomoea spp.), pigweed (Amaranthus retroflexus), velvetleaf (Abutilon theophrasti), ryegrass, Italian (Italian ryegrass, Lolium multiflorum), wheat (Triticum aestivum), and corn (Zea mays) were planted into a blend of loam soil and sand and treated preemergence with a directed soil spray using test chemicals formulated in a non-phytotoxic solvent mixture which included a surfactant.
At the same time, plants selected from these crop and weed species and also blackgrass (Alopecurus myosuroides), and galium (catchweed bedstraw, Galium aparine), were planted in pots containing the same blend of loam soil and sand and treated with postemergence applications of test chemicals formulated in the same manner. Plants ranged in height from 2 to 10 cm and were in the one- to two-leaf stage for the postemergence treatment. Treated plants and untreated controls were maintained in a greenhouse for approximately 10 d, after which time all treated plants were compared to untreated controls and visually evaluated for injury. Plant response ratings, summarized in Table A, are based on a 0 to 100 scale where 0 is no effect and 100 is complete control. A dash (-) response means no test result.

Compound | Plant response rating (scale of 0 to 100 where 0 is no effect and 100 is complete control) (pigweed; 125 g ai/ha) | Plant response rating (scale of 0 to 100 where 0 is no effect and 100 is complete control) (pigweed; 250 g ai/ha) | Pigweed plant response rating (0 to 100) (pigweed; 31 g ai/ha) | Pigweed plant response rating (0 to 100) (pigweed; 62 g ai/ha) | pest or weed control at 125 g/ha (velvetleaf) [%] | pest or weed control at 500 g/ha (velvetleaf) [%] | Plant response rating (scale of 0 to 100 where 0 is no effect and 100 is complete control) (foxtail, giant; 125 g ai/ha) | Plant response rating (scale of 0 to 100 where 0 is no effect and 100 is complete control) (foxtail, giant; 250 g ai/ha) | Foxtail, Giant plant response rating (0 to 100) (foxtail, giant; 31 g ai/ha) | Foxtail, Giant plant response rating (0 to 100) (foxtail, giant; 62 g ai/ha) | Plant response rating, Ragweed (ragweed; 125 g ai/ha) | further results
CCc1nc(-c2ccc(C(F)(F)F)cc2)nn1Cc1ccnc(C(F)(F)F)c1 [Compound 1, 4-[[5-ethyl-3-[4-(trifluoromethyl)phenyl]-1H-1,2,4-triazol-1-yl]methyl]-2-(trifluoromethyl)pyridine] | 100 | 100 | 100 | 100 | 90 | 100 | 100 | 100 | 98 | 98 | – | Plant response rating: Mustard, Wild (wild mustard; 62 g ai/ha): 100; Plant response rating: Mustard, Wild (wild mustard; 125 g ai/ha): 100; Plant response rating: Mustard, Wild (wild mustard; 250 g ai/ha): 100; Plant response rating: Barley, Spring (barley, spring; 31 g ai/ha): 0; Plant response rating: Barley, Spring (barley, spring; 62 g ai/ha): 0; Plant response rating: Barley, Spring (barley, spring; 125 g ai/ha): 0; Plant response rating: Barley, Spring (barley, spring; 250 g ai/ha): 5; Plant response rating: Barley, Winter (barley, winter; 31 g ai/ha): 0; Plant response rating: Barley, Winter (barley, winter; 62 g ai/ha): 5; Plant response rating: Barley, Winter (barley, winter; 125 g ai/ha): 10; Plant response rating: Barley, Winter (barley, winter; 250 g ai/ha): 20
Cn1nc(-c2ccc(F)cc2)nc1Oc1cccc(C(F)(F)F)c1 [Compound 5, 3-(4-fluorophenyl)-1-methyl-5-[3-(trifluoromethyl)phenoxy]-1H-1,2,4-triazole] | – | – | – | – | 30 | 60 | – | – | – | – | – | –
CCCc1nc(-c2ccc(F)cc2)nn1Cc1ccnc(C(F)(F)F)c1 [Compound 6, 4-[[3-(4-fluorophenyl)-5-propyl-1H-1,2,4-triazol-1-yl]methyl]-2-(trifluoromethyl)pyridine] | 100 | 100 | 100 | 100 | 90 | 100 | 100 | 100 | 100 | 100 | – | –
COc1nc(-c2ccc(F)cc2)nn1Cc1ccnc(C(F)(F)F)c1 [Compound 9, 4-[[3-(4-fluorophenyl)-5-methoxy-1H-1,2,4-triazol-1-yl]methyl]-2-(trifluoromethyl)pyridine] | 100 | 98 | 100 | 100 | 50 | 90 | 100 | 100 | 80 | 100 | – | –
Cn1nc(-c2ccc(F)cc2)nc1C(O)c1ccnc(C(F)(F)F)c1 (stereo not drawn) [Compound 14, α-[3-(4-fluorophenyl)-1-methyl-1H-1,2,4-triazol-5-yl]-2-(trifluoromethyl)-4-pyridinemethanol] | – | – | – | – | 30 | 50 | – | – | – | – | – | –
CCn1nc(-c2ccc(F)cc2)nc1C(O)c1ccnc(C(F)(F)F)c1 (stereo not drawn) [Compound 15, α-[1-Ethyl-3-(4-fluorophenyl)-1H-1,2,4-triazol-5-yl]-2-(trifluoromethyl)-4-pyridinemethanol] | – | – | – | – | 0 | 0 | – | – | – | – | – | –
CCCn1nc(-c2ccc(F)cc2)nc1Cc1ccnc(C(F)(F)F)c1 [Compound 17, 4-[[3-(4-fluorophenyl)-1-propyl-1H-1,2,4-triazol-5-yl]methyl]-2-(trifluoromethyl)pyridine] | – | – | – | – | 90 | 100 | – | – | – | – | – | –
CCn1nc(-c2ccc(F)cc2)nc1C(=O)c1ccnc(C(F)(F)F)c1 [Compound 19, [1-ethyl-3-(4-fluorophenyl)-1H-1,2,4-triazol-5-yl][2-(trifluoromethyl)-4-pyridinyl]methanone] | – | – | – | – | 0 | 0 | – | – | – | – | – | –
COc1nc(-c2ccc(C(F)(F)F)cc2)nn1Cc1ccnc(C(F)(F)F)c1 [Compound 25] | – | – | – | – | – | – | – | – | – | – | 30 | Plant response rating, Ragweed (ragweed; 31 g ai/ha): 20
CCOc1nc(-c2ccc(Cl)cc2)nn1Cc1ccnc(C(F)(F)F)c1 [Compound 26] | – | – | – | – | – | – | – | – | – | – | 50 | Plant response rating, Ragweed (ragweed; 31 g ai/ha): 30
CS(=O)(=O)c1nc(-c2ccc(F)cc2)nn1Cc1ccnc(C(F)(F)F)c1 [Compound 29, 4-[[3-(4-fluorophenyl)-5-(methylsulfonyl)-1H-1,2,4-triazole-1-yl]methyl]-2-(trifluoromethyl)pyridine] | – | – | – | – | 0 | 0 | – | – | – | – | – | –
COc1nc(-c2ccccc2)nn1Cc1ccnc(C(F)(F)F)c1 [Compound 32] | 100 | 100 | 100 | 100 | – | – | 85 | 100 | 5 | 70 | 30 | Plant response rating, Ragweed (ragweed; 500 g ai/ha): 70
CCCOc1nc(-c2ccccc2)nn1Cc1ccnc(C(F)(F)F)c1 [Compound 33] | – | – | – | – | – | – | – | – | – | – | 30 | Plant response rating, Ragweed (ragweed; 500 g ai/ha): 50
